Data taken from paper PMC3522794 (Nature chemical biology, 2012).

Legend:
HCK^Y527F = HCK^Y527F (Homo sapiens, UniProt P08631, Y522F); assay: Pull-down assay to determine SH3 domain accessibility; type: binding; settings: inhibitor 5 µM (saturating), kinase 100 nM; mean ± SEM, n=3
[1] = biological target: SNAP-tag-polyproline (PP) peptide fusion (…); assay: pull-down

| Compound | Percent kinase eluted (retained on PP ligand beads), HCK^Y527F (HCK^Y527F) [%] | percent of loaded kinase retained on the beads [1] [%] |
| --- | --- | --- |
| Cc1nc(Nc2ncc(C(=O)Nc3c(C)cccc3Cl)s2)cc(N2CCN(CCO)CC2)n1 [Dasatinib, dasatinib] | 27 | – |
| HCK^Y527F (HCK residues 84–531, Y527F, SRC residue numbering) (enzyme) | – | 27 |
